Measurements as given in the supplement of paper PMC6045584.

How the values were obtained:
Assay in all cases: area under dose-response curve of surviving fraction (unscaled, Aref=0) (surviving fraction x log10(nM)); higher = more resistant
Conditions in all cases: exposure time: 5 days; dose range 0.5-1000 nM
AFIMOXIFENE = compound: CC/C(=C(\c1ccc(O)cc1)c1ccc(OCCN(C)C)cc1)c1ccccc1 [AFIMOXIFENE]
How it was run: (§1)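 Inhibitor was applied to tumour cell lines at eight concentrations (0.5 to 1000 nM) for five days in 384-well plates. Luminescence from CellTiter-Glo, scaled to DMSO-only wells, gave surviving fractions in three screens per line, and these were fitted by 3-parameter logistic regression with the drc R package. The area under the curve is an unscaled activity area. Aref was 0, and dose was on a log10 scale.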

CABOZANTINIB = compound: COc1cc2nccc(Oc3ccc(NC(=O)C4(C(=O)Nc5ccc(F)cc5)CC4)cc3)c2cc1OC [CABOZANTINIB]
How it was run: as §1

NILOTINIB = compound: Cc1cn(-c2cc(NC(=O)c3ccc(C)c(Nc4nccc(-c5cccnc5)n4)c3)cc(C(F)(F)F)c2)cn1 [NILOTINIB]
How it was run: as §1

[1] = compound: CCc1cc(Nc2nccc(-c3c(-c4ccc(OC)c(C(=O)Nc5c(F)cccc5F)c4)nc4ccccn34)n2)c(OC)cc1N1CCC(N2CCN(S(C)(=O)=O)CC2)CC1
How it was run: as §1

BEZ-235 = compound: Cn1c(=O)n(-c2ccc(C(C)(C)C#N)cc2)c2c3cc(-c4cnc5ccccc5c4)ccc3ncc21 [BEZ-235]
How it was run: as §1

[2] = compound: C[C@@H]1CN(CC(=O)Nc2ccc3c(c2)Cc2cccc(-c4cc(=O)cc(N5CCOCC5)o4)c2S3)C[C@H](C)O1
How it was run: as §1

MK-1775 = compound: C=CCn1c(=O)c2cnc(Nc3ccc(N4CCN(C)CC4)cc3)nc2n1-c1cccc(C(C)(C)O)n1 [MK-1775]
How it was run: as §1

BLEOMYCIN = compound: Cc1c(N)nc([C@H](CC(N)=O)NC[C@H](N)C(N)=O)nc1C(=O)N[C@H](C(=O)N[C@H](C)[C@@H](O)[C@H](C)C(=O)N[C@H](C(=O)NCCc1nc(-c2nc(C(=O)NCCC[S+](C)C)cs2)cs1)[C@@H](C)O)[C@@H](OC1OC(CO)C(O)C(O)C1OC1OC(CO)C(O)C(OC(N)=O)C1O)c1cnc[nH]1 [BLEOMYCIN]
How it was run: as §1

BMN-673 = compound: Cn1ncnc1[C@H]1c2n[nH]c(=O)c3cc(F)cc(c23)N[C@@H]1c1ccc(F)cc1 [BMN-673]
How it was run: as §1

VORINOSTAT = compound: O=C(CCCCCCC(=O)Nc1ccccc1)NO [VORINOSTAT]
How it was run: as §1

[3] = compound: COc1ccc(-c2cc3c(C)nc(N)nc3n([C@H]3CC[C@H](OCCO)CC3)c2=O)cn1
How it was run: as §1

LENVATINIB = compound: COc1cc2nccc(Oc3ccc(NC(=O)NC4CC4)c(Cl)c3)c2cc1C(N)=O [LENVATINIB]
How it was run: as §1

[4] = compound: C[C@H](CN(C)C)Oc1nc(Nc2cc3cccc(Cl)c3cn2)cnc1C#N
How it was run: as §1

IMATINIB = compound: Cc1ccc(NC(=O)c2ccc(CN3CCN(C)CC3)cc2)cc1Nc1nccc(-c2cccnc2)n1 [IMATINIB]
How it was run: as §1

| Test System | area under dose-response curve (AFIMOXIFENE) | area under dose-response curve (CABOZANTINIB) | area under dose-response curve (NILOTINIB) | area under dose-response curve [1] | area under dose-response curve (BEZ-235) | area under dose-response curve [2] | area under dose-response curve (MK-1775) | area under dose-response curve (BLEOMYCIN) | area under dose-response curve (BMN-673) | area under dose-response curve (VORINOSTAT) | area under dose-response curve [3] | area under dose-response curve (LENVATINIB) | area under dose-response curve [4] | area under dose-response curve (IMATINIB) |
| --- | --- | --- | --- | --- | --- | --- | --- | --- | --- | --- | --- | --- | --- | --- |
| HELA CERVIX | 3.54 | 3.33 | 3.53 | 3.49 | 3.17 | 3.72 | 2.7 | 3.15 | 3.22 | 3.3 | 2.88 | 3.67 | 3.28 | 3.58 |
| VP229 BREAST | 3.71 | 3.43 | 3.75 | 3.66 | 2.64 | 3.29 | 2.75 | 2.61 | 3.22 | 3.08 | 2.08 | 4.16 | 3.45 | 4.06 |
| OSHN BONE | 3.65 | 3.22 | 3.28 | 3.42 | 3.19 | 3.42 | 2.85 | 2.72 | 2.4 | 3.47 | 2.99 | 3.63 | 3.08 | 3.71 |
| CAL120 BREAST | 3.29 | 3.04 | 3.5 | 3.17 | 2.06 | 3.33 | 2.62 | 2.66 | 2.16 | 2.69 | 2.16 | 3.14 | 3.04 | 3.08 |
| HSSYII SYNOVIAL | 3.31 | 2.98 | 3.09 | 3.08 | 2.12 | 3 | 2.05 | 2.09 | 1.15 | 2.82 | 1.93 | 2.64 | 2.56 | 3.24 |
| HUO3N1 BONE | 3.5 | 3 | 3.34 | 3.26 | 2.58 | 3.28 | 2.77 | 2.94 | 2.59 | 3.25 | 2.24 | 3.05 | 3.12 | 3.24 |
| JIMT1 BREAST | 3.34 | 3.5 | 3.15 | 3.34 | 2.38 | 3.11 | 2.04 | 2.8 | 2.39 | 3.11 | 2.47 | 3.41 | 2.3 | 3.41 |
| U2OS BONE | 3.56 | 3.26 | 3.59 | 3.38 | 2.68 | 3.54 | 2.46 | 3.02 | 2.8 | 3.23 | 2.54 | 3.24 | 2.9 | 3.59 |
| OS25HAL BONE | 3.51 | 3.05 | 3.17 | 3.27 | 2.66 | 3.38 | 2.36 | 2.85 | 2.71 | 3.21 | 2.12 | 3.19 | 3.06 | 3.47 |
| MDAMB231 BREAST | 3.31 | 3.22 | 2.86 | 3.23 | 2.28 | 3.03 | 2.54 | 2.82 | 2.49 | 3.11 | 2.27 | 3.24 | 3.05 | 3.24 |
| T47D BREAST | 3.17 | 3.4 | 3.49 | 3.46 | 2.71 | 3.37 | 2.97 | 2.92 | 2.5 | 3.15 | 2.22 | 3.63 | 3.29 | 3.66 |
| MDAMB436 BREAST | 3.33 | 3.27 | 2.98 | 3.2 | 2.23 | 2.84 | 2.4 | 2.47 | 1.5 | 2.84 | 2.03 | 3.2 | 2.74 | 3.32 |
| CAL51 BREAST | 3.36 | 3.28 | 3.22 | 3.35 | 1.99 | 3.27 | 2.31 | 2.39 | 1.22 | 3.06 | 2.28 | 3.18 | 2.73 | 3.53 |
| HOS BONE | 3.46 | 3.24 | 3.43 | 3.27 | 2.52 | 3.29 | 2.77 | 3.03 | 3 | 3.28 | 2.46 | 3.38 | 3.05 | 3.43 |
| CHLA90 AUTONOMIC GANGLIA | 3.42 | 2.95 | 3.5 | 3.16 | 2.25 | 3.37 | 2.46 | 2.89 | 2.97 | 3.28 | 2.37 | 3.23 | 2.86 | 3.45 |
| LM7 BONE | 3.53 | 3.43 | 3.1 | 3.23 | 2.77 | 3.09 | 2.34 | 2.46 | 1.78 | 3.26 | 2.32 | 3.27 | 3.17 | 3.59 |
| HCT15 LARGE INTESTINE | 3.52 | 3.2 | 3.52 | 3.39 | 2.4 | 3.44 | 3.01 | 2.34 | 2.22 | 3.26 | 2.38 | 3.67 | 3.27 | 3.74 |
